# Assay results reported in PubChem BioAssay AID651642 (Sanford-Burnham Center for Chemical Genomics, 2012).
# Tests used:
# H9c2 = assay: protection of cardiomyocytes from stress damage, SAR follow-up, cell-based, panel, H9c2 and HL-1, H2O2, 2-deoxyglucose, ATP luminescence (AID 651642)
# HL-1 = assay: as above
# [1] = H9c2/HL-1 cardiomyocyte 2-deoxyglucose damage, mean of runs, with 2-deoxyglucose, mean IC50 across panel
# [2] = H9c2/HL-1 cardiomyocyte 2-deoxyglucose damage, run 1, with 2-deoxyglucose
# [3] = H9c2/HL-1 cardiomyocyte 2-deoxyglucose damage, run 2, with 2-deoxyglucose
# [4] = H9c2/HL-1 cardiomyocyte 2-deoxyglucose damage, run 3, with 2-deoxyglucose
# [5] = H9c2/HL-1 cardiomyocyte 2-deoxyglucose damage, run 4, with 2-deoxyglucose
# [6] = H9c2/HL-1 cardiomyocyte H2O2 oxidative damage, mean of runs, with H2O2, mean IC50 across panel
# [7] = H9c2/HL-1 cardiomyocyte H2O2 oxidative damage, run 1, with H2O2
# [8] = H9c2/HL-1 cardiomyocyte H2O2 oxidative damage, run 2, with H2O2
# [9] = H9c2/HL-1 cardiomyocyte H2O2 oxidative damage, run 3, with H2O2
# [10] = H9c2/HL-1 cardiomyocyte H2O2 oxidative damage, run 4, with H2O2
Structure (SMILES),IC50 (H9c2; [1]) [µM],IC50 (H9c2; [2]) [µM],IC50 (H9c2; [3]) [µM],IC50 (H9c2; [4]) [µM],IC50 (H9c2; [5]) [µM],IC50 (H9c2; [6]) [µM],IC50 (H9c2; [7]) [µM],IC50 (H9c2; [8]) [µM],IC50 (H9c2; [9]) [µM],IC50 (H9c2; [10]) [µM],IC50 (HL-1; [1]) [µM],IC50 (HL-1; [2]) [µM],IC50 (HL-1; [3]) [µM],IC50 (HL-1; [4]) [µM],IC50 (HL-1; [5]) [µM],IC50 (HL-1; [6]) [µM],IC50 (HL-1; [7]) [µM],IC50 (HL-1; [8]) [µM],IC50 (HL-1; [9]) [µM],IC50 (HL-1; [10]) [µM]
COc1cc(-c2cc(C(=O)Nc3cccc(C(C)=O)c3)c3cc(F)ccc3n2)cc(OC)c1OC,> 79,> 79,> 79,> 79,> 79,6.9,5.38,7.18,4.58,10.5,> 79,> 79,> 79,> 79,> 79,3.68,2.49,3.72,3.31,5.2
COc1cc(-c2cc(C(=O)Nc3cccc(C(=O)N(C)C)c3)c3ccccc3n2)cc(OC)c1OC,> 79,> 79,> 79,> 79,> 79,–,> 79,3.17,3.3,3.78,16.5,6.9,7.56,24.5,26.9,9.38,7.37,12.8,7.61,9.78
COc1cc(-c2cc(C(=O)Nc3cccc(C(=O)O)c3)c3ccccc3n2)cc(OC)c1OC,> 79,> 79,> 79,> 79,> 79,> 79,> 79,> 79,> 79,> 79,> 79,> 79,> 79,> 79,> 79,> 79,> 79,> 79,> 79,> 79
COc1cc(-c2cc(C(=O)Nc3cccc(C(=O)Nc4ccccc4)c3)c3ccccc3n2)cc(OC)c1OC,4.71,5.69,5.71,3.53,3.93,1.28,1.55,1.96,0.724,0.895,1.19,0.708,0.802,1.43,1.8,–,> 79,1.54,1.68,2.15
CCOC(=O)c1cccc(NC(=O)c2cc(-c3cc(OC)c(OC)c(OC)c3)nc3cc(Cl)ccc23)c1,> 79,> 79,> 79,> 79,> 79,–,> 79,31.1,> 79,> 79,> 79,> 79,> 79,> 79,> 79,–,> 79,> 79,6.51,6.76
COc1ccc2nc(-c3cc(OC)c(OC)c(OC)c3)cc(C(=O)Nc3cccc(C(C)=O)c3)c2c1,–,> 79,27.9,> 79,> 79,–,5.31,8.25,> 79,2.94,–,6.04,6.84,> 79,> 79,–,> 79,> 79,3.8,8.57
COc1cc(-c2cc(C(=O)NCC(=O)Nc3ccc(C(C)=O)cc3)c3cc(F)ccc3n2)cc(OC)c1OC,> 79,> 79,> 79,> 79,> 79,–,1.54,2.4,> 79,> 79,–,2.6,3.39,> 79,> 79,4.71,3.18,10.4,0.441,4.84
COc1ccc2c(c1OC)C(=O)N1c3ccccc3C(=O)N(Cc3cccc(F)c3)C21 (centres undefined),> 79,> 79,> 79,> 79,> 79,–,1.15,1.56,> 79,> 79,6.54,3.49,4.29,9.07,9.32,> 79,> 79,> 79,> 79,> 79
